# In patent US11427594B2, “Non brain penetrant A2A inhibitors and methods for use in the treatment of cancers” (iTeos Belgium SA, priority 2018, dated 2022):
# Like-named read-outs stand apart in the source and are kept apart here.
# Legend:
# [1] = biological target: T1, A2A receptor (Homo sapiens, UniProt P29274); assay: Inhibition of cAMP production in HEK cells (LANCE Ultra cAMP, TR-FRET); format: cell-based; settings: HEK-293 cells with stable transfection of A2A receptor
# T1 construct: host or cells: HEK-293
# Description: When the A2A receptor is activated, is induces the production of cAMP. The present assay thus aims at showing that cAMP production is inhibited in HEK cells in response to their exposure to the compounds of the invention. HEK-293 cells with a stable transfection of A2A receptor were bought from PerkinElmer® (#ES-011-C). Cells were cultured in EMEM medium (Lonza, #BE12-611F) supplemented with 10% FBS (Lonza, #DE14-801F) and 200 μg/mL of G418 (Tocris, #4131) at 37° C. and 5% CO2. Fresh media without the selection marker was added on the day immediately before the experiment to stop selection pressure. cAMP inhibition and antagonist IC50 determination were accessed using the LANCE® Ultra cAMP Kit from PerkinElmer® (#TRF0262) on white half area 96 well plates (PerkinElmer®, #6005560). The assays were conducted in two different stimulation buffers: • a) normal with 1×HBSS (Gibco®, #141750-95), 5 mM HEPES (Lonza, #BE17-737E), 0.1% BSA and 25 μM Rolipram and • b) HSA with 1×HBSS (Gibco®, #141750-95), 5 mM HEPES (Lonza, #BE17-737E), 2% Human Serum Albumin (Sigma-Aldrich®—A1653), 30 μM of EHNA (Tocris—#1261) and 100 μM Rolipram. Stimulation buffer b) mimics the human situation by increasing the amount of albumin present in the assay. Compounds of the present invention were diluted 100× in either of the buffers depending on the assay performed. A total of 1000 cells per well were pre-incubated for 10 minutes with the compounds of the present invention before adding the corresponded EC80 of A2A agonist (3 nM of NECA in normal buffer) or 5 μM of Adenosine (in HAS buffer) for a total reaction time of 30 minutes. The total volume of the reaction was 20 μl (10 μl of cells, 5 μl of antagonist and 5 μl of agonist). The reaction was finalized by adding 10 μl of 4×EU-cAMP tracer working solution and 10 μl of 4× ULight-anti-cAMP working solution. The TR-FRET signal was measured after 1 hour using a Spectramax Paradigm (Molecular Devices).
# [2] = Permeability and efflux in Caco-2 cells; format: in vitro ADME; settings: human, Caco-2 monolayer, bidirectional transport, pH 7.4
# Description: The transport buffer (TB, pH 7.4) used in the study is Hank's Buffered Saline Solution (HBSS, Gibco, Cat #14025-076) with 10 mM HEPES at pH 7.4. Fetal bovine serum (FBS) (Corning, Cat #Corning-35-076-CV, or other vendors), Minimum Essential Media (MEM) (Gibco, Cat #41500-034) as well as its supplements are purchased from Invitrogen (Carlsbad, Calif., USA). Caco-2 cell line (Cat #HTB-37) is purchased from the ATCC (Rockville, Md., USA). The organic solvents used in the study are purchased from Sigma Aldrich (St. Louis, Mo., USA). For reference compounds (fenoterol, propranolol and digoxin) and test compounds, 0.4 mM intermediate solutions are prepared by diluting 10 mM or other appropriate concentrations of DMSO stock solutions with DMSO. 2 μM dosing solutions for reference compounds and test compounds are prepared by spiking the appropriate volume of intermediate solution to TB with and without 1 μM Zosuquidar. The final concentration of DMSO is no more than 1% (v/v). Caco-2 cells are grown in MEM supplemented with 2 mM L-glutamine, 10% FBS, 100 U/mL penicillin-G and 100 μg/mL streptomycin. The cells are incubated at 37° C., 5% CO2 and relatively saturated humidity. After reaching 80-90% confluency, the cells are gently detached with 0.05% trypsin-EDTA solution. Cells at passage 30-50 are seeded on the 96-well BD insert system (Cat #359274) at the density of 1×10^5 cells/cm2 and cultured for 21-28 days with medium changed every 4-5 days. TB and dosing solutions were pre-warmed to 37° C. before transport assay. The cell monolayer was washed twice with HBSS containing 10 mM HEPES. For A-B (apical to basolateral) directional transport assay, 75 μL dosing solution is added to the apical well. Fill each basolateral well with 250 μL TB. For B-A (basolateral to apical) directional transport assay, 250 μL of dosing solution is added to the basolateral well after filling each apical well with 75 μL TB. Test compound(s) and digoxin are tested at 2 μM in the presence or absence of 1 μM zosuquidar bidirectionally in duplicate. Atenolol and propranolol are tested at 2 μM in the absence of zosuquidar in A to B direction in duplicate. The plates are incubated for 120 minutes at 37° C. with 5% C02 and saturated humidity. The time zero samples are generated by mixing 50 μL initial dosing solution of test compound or reference compound with 100 μL TB and 250 μL quench solution (acetonitrile (ACN) or other appropriate solvent with internal standard(s), based on the bioanalytical method development). At 120 minutes, 150 μL of solution is collected from each A-B receiver well followed by addition of 250 μL quench solution to get A-B receiver sample. And for other samples (A-B donor, B-A donor and receiver), 50 μL of solution is collected from each corresponding well followed by addition of 250 μL quench solution and 100 μL TB. All samples are vortex-mixed and centrifuged at 3220 g for 20 minutes. Subsequently, supernatant is diluted with ultra pure water for LC-MS/MS analysis. The concentrations of test compound in all samples are determined by LC-MS/MS and expressed as peak area ratio of analyte to internal standard. The concentration of samples is expressed using the peak area ratio of Analyte to Internal Standard (Analyte/IS). The apparent permeability coefficient (Papp) is calculated using the following equation: Papp=VR/(Area*Time)*(CR/C0) wherein VR is the solution volume in the receiver chamber (0.075 mL on the apical side, 0.25 mL on the basolateral side); Area is the surface area for the transport, i.e. 0.0804 cm2 for the area of the monolayer; Time is incubation time, expressed in seconds, 2 h=2×3600 s; C0 is the initial concentration in the donor chamber; CR is the final concentrations in receiver chamber. The efflux ratio is calculated using the following equation: Efflux ratio=[…]) where Papp (A-B) and Papp (B-A) are the Papp values of compound in Apical to Basolateral and Basolateral to Apical directional transport, respectively.
# [3] = HSA stimulation buffer, 5 μM Adenosine as agonist, 2.0% HSA, read-out: IC50 (nM) (5 μM Adenosine as agonist, 2.0% HSA)
# [4] = normal stimulation buffer, 3 nM NECA as agonist, 0.1% BSA, read-out: IC50 (nM) (3 nM NECA as agonist, 0.1% BSA)
# T1 sequence (P29274 whole entry): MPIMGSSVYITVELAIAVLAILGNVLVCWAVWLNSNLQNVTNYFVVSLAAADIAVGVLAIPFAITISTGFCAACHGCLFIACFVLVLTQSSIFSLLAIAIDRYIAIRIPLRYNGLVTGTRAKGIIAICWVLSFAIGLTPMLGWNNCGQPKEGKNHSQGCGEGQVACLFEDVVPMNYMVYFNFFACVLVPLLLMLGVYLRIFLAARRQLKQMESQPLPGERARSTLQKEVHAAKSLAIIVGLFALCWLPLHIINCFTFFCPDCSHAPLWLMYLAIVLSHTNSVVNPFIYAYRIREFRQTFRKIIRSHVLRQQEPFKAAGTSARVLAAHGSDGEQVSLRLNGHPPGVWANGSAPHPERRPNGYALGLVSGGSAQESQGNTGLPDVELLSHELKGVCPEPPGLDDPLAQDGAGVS
Compound,"IC50 [1, 3] [nM]","IC50 [1, 4] [nM]","efflux ratio at 120 min, 2 μM [2]"
"C[S@@+]([O-])CCOc1cc(N2CCN(CCNc3nc(N)n4nc(-c5ccco5)nc4n3)CC2)c(F)cc1F [Compound 11, (R)—N5-(2-(4-(2,4-difluoro-5-(2-(methylsulfinyl)ethoxy)phenyl)piperazin-1-yl)ethyl)-2-(furan-2-yl)-[1,2,4]triazolo[1,5-a][1,3,5]triazine-5,7-diamine]",41,0.4,> 600
"C[S@+]([O-])CCOc1cc(N2CCN(CCn3ncc4c3nc(N)n3nc(-c5ccco5)nc43)CC2)c(F)cc1F [Compound 12, (S)-7-(2-(4-(2,4-difluoro-5-(2-(methylsulfinyl)ethoxy)phenyl)piperazin-1-yl)ethyl)-2-(furan-2-yl)-7H-pyrazolo[4,3-e][1,2,4]triazolo[1,5-c]pyrimidin-5-amine]",162,0.4,> 140
"C[S@@+]([O-])CCOc1cc(N2CCN(CCn3ncc4c3nc(N)n3nc(-c5ccco5)nc43)CC2)c(F)cc1F [Compound 13, (R)-7-(2-(4-(2,4-difluoro-5-(2-(methylsulfinyl)ethoxy)phenyl)piperazin-1-yl)ethyl)-2-(furan-2-yl)-7H-pyrazolo[4,3-e][1,2,4]triazolo[1,5-c]pyrimidin-5-amine]",131,0.5,> 100
"Nc1nc(NCCN2CCN(c3cc(O[C@H]4CC[S@@+]([O-])CC4)c(F)cc3F)CC2)nc2nc(-c3ccco3)nn12 [Compound 14, (1s,4s)-4-(5-(4-(2-((7-amino-2-(furan-2-yl)-[1,2,4]triazolo[1,5-a][1,3,5]triazin-5-yl)amino)ethyl)piperazin-1-yl)-2,4-difluorophenoxy)tetrahydro-2H-thiopyran 1-oxide]",71,0.7,> 900
"Nc1nc(NCCN2CCN(c3ccc(C(=O)N4CC[S+]([O-])CC4)cc3F)CC2)nc2nc(-c3ccco3)nn12 [Compound 18, (4-(4-(2-((7-amino-2-(furan-2-yl)-[1,2,4]triazolo[1,5-a][1,3,5]triazin-5-yl)amino)ethyl)piperazin-1-yl)-3-fluorophenyl)(1-oxidothiomorpholino)methanone]",632,0.5,> 80
Nc1nc(NCCN2CCN(c3ccc(O[C@H]4CC[S@@+]([O-])CC4)cc3F)CC2)nc2nc(-c3ccco3)nn12 [Compound 19],106,0.8,> 110
"Cn1c(=O)n(CCN2CCN(c3ccc(OCC[S+](C)[O-])cc3F)CC2)c2nc(N)n3nc(-c4ccco4)nc3c21 (stereo not drawn) [Compound 20, 5-amino-3-(2-(4-(2-fluoro-4-(2-(methylsulfinyl)ethoxy)phenyl)piperazin-1-yl)ethyl)-8-(furan-2-yl)-1-methyl-1H-[1,2,4]triazolo[5,1-i]purin-2(3H)-one]",72,0.4,> 300
"Cn1c(=O)n(CCN2CCN(c3cc(OC4CCNC4=O)c(F)cc3F)CC2)c2nc(N)n3nc(-c4ccco4)nc3c21 (stereo not drawn) [Compound 21, 5-amino-3-(2-(4-(2,4-difluoro-5-((2-oxopyrrolidin-3-yl)oxy)phenyl)piperazin-1-yl)ethyl)-8-(furan-2-yl)-1-methyl-1H-[1,2,4]triazolo[5,1-i]purin-2(3H)-one]",178,0.4,> 150
